Source: patent publication US20090118331A1, “Use of Lobeline Epimers in the Treatment of Central Nervous System Diseases, Pathologies, and Drug Abuse” (priority 2007, published 2009)

Key:
[1] = Lobeline epimerization in pH 7.4 phosphate buffer control; conditions: after 2 hours, with impurity
Description: In order to determine the tendency of lobeline to undergo epimerization in the HEPES buffer employed in the 25° C. [^3H]DTBZ binding study and the 37° C. VMAT2 uptake studies previously described, analogous solution epimerization experiments were conducted using the corresponding conditions for each individual assay. […] As this dynamic phenomenon occurs, the ratio of lobeline to lobeline epimer in solution naturally changes over time. Further, depending upon the solution conditions, the rate and extent of epimerization may vary; thus, a ratio of lobeline to epimer, if achieved, may occur at various time points. After 2 hours, the 25° C. […] The epimerization of lobeline in the 37° C.

[2] = Lobeline conversion to epimer in the HEPES buffer system used at 25° C. in the [^3H]DTBZ binding study (HPLC); assay type: physicochemical; conditions: for Epimer %: [^3H]DTBZ binding buffer, 25° C.
Description: The initial dissolution of lobeline in water was followed by a 1:1 dilution of this stock solution in the appropriate HEPES buffer system, incubation at the prescribed temperature, and HPLC assay of each epimer and potential degradants over 2 hour incubation.
After 2 hours, the 25° C.

in vivo = conditions: for AUC(0-inf) / AUC(0-t) / Cmax / MRT last / Tmax / Vd / clearance / half-life: rat, in vivo
Description: Here, serial doses of lobeline were administered to male and female rats intravenously, subcutaneously or orally, and the pharmacokinetic profiles of the parent lobeline and its epimer were monitored in plasma.

[3] = Lobeline conversion to epimer in the buffer system used at 37° C. in the VMAT2 uptake study (HPLC); assay type: physicochemical

With `CN1[C@H](CC(=O)c2ccccc2)CCC[C@H]1C[C@H](O)c1ccccc1` (single isomer, unassigned; epimer 2) [Epimer, 2-[6S-(2S-hydroxy-2-phenyl-ethyl)-1-methyl-piperidin-2S-yl]-1-phenyl-ethanone] the “component content of solution” value ([1]; pH 7.4 phosphate buffer control, same temperature as 25° C. binding buffer) was 35%, the “component content of solution” value ([1]; phosphate buffer control for the 37° C. VMAT2 uptake buffer) was 36% and the “final component concentration (as a function of the area under the curve)” value ([2]; HEPES [^3H]DTBZ binding buffer, after 2 hours at 25° C.) was 17%. It also gave an Epimer % ([2]; T0, sample age 0:01) of 1.54%, an Epimer % ([2]; T5, sample age 0:06) of 2.16% and an Epimer % ([2]; T10, sample age 0:10) of 3.34%. The Epimer % ([2]; T15, sample age 0:15) was 4.55%, the Epimer % ([2]; T20, sample age 0:20) was 5.27% and the Epimer % ([2]; T25, sample age 0:25) was 5.91%. For the same compound, the Epimer % ([2]; T30, sample age 0:31) was 7.18%, the Epimer % ([2]; T35, sample age 0:35) was 7.30% and the Epimer % ([2]; T40, sample age 0:40) was 8.66%. The Epimer % ([2]; T45, sample age 0:45) was 9.31%, the Epimer % ([2]; T50, sample age 0:50) was 9.94% and the Epimer % ([2]; T55, sample age 0:55) was 10.2%. For the same compound, the Epimer % ([2]; T60, sample age 1:00) was 10.9%, the Epimer % ([2]; T70, sample age 1:10) was 11.9% and the Epimer % ([2]; T80, sample age 1:20) was 13.1%. The Epimer % ([2]; T90, sample age 1:31) was 14.1%, the Epimer % ([2]; T100, sample age 1:40) was 15.2% and the Epimer % ([2]; T110, sample age 1:50) was 16.1%. For the same compound, the Epimer % ([2]; T120, sample age 2:01) was 17.0%, the AUC(0-inf) (in vivo; female, iv, 2 mg/kg) was 76.9 ng·h/mL and the AUC(0-t) (in vivo; female, iv, 2 mg/kg) was 75.4 ng·h/mL. For the same compound, the Cmax (in vivo; female, iv, 2 mg/kg) was 53.9 ng/mL, the MRT last (in vivo; female, iv, 2 mg/kg) was 1.6 h and the Tmax (in vivo; female, iv, 2 mg/kg) was 0.25 h. For the same compound, the Vd (in vivo; female, iv, 2 mg/kg) was 45.9 L/kg, the clearance (in vivo; female, iv, 2 mg/kg) was 0.433 mL/min/kg and the half-life (in vivo; female, iv, 2 mg/kg) was 1.47 h. For the same compound, the AUC(0-inf) (in vivo; female, po, 20 mg/kg) was 40.9 ng·h/mL, the AUC(0-t) (in vivo; female, po, 20 mg/kg) was 39.3 ng·h/mL and the Cmax (in vivo; female, po, 20 mg/kg) was 23.8 ng/mL. It also gave an MRT last (in vivo; female, po, 20 mg/kg) of 2.16 h, a Tmax (in vivo; female, po, 20 mg/kg) of 0.5 h and a half-life (in vivo; female, po, 20 mg/kg) of 1.71 h. For the same compound, the AUC(0-inf) (in vivo; female, sc, 3 mg/kg) was 128 ng·h/mL, the AUC(0-t) (in vivo; female, sc, 3 mg/kg) was 127 ng·h/mL and the Cmax (in vivo; female, sc, 3 mg/kg) was 85 ng/mL. It also gave an MRT last (in vivo; female, sc, 3 mg/kg) of 1.5 h, a Tmax (in vivo; female, sc, 3 mg/kg) of 0.5 h and a half-life (in vivo; female, sc, 3 mg/kg) of 1.11 h. For the same compound, the AUC(0-inf) (in vivo; male, iv, 2 mg/kg) was 69.7 ng·h/mL, the AUC(0-t) (in vivo; male, iv, 2 mg/kg) was 68.7 ng·h/mL and the Cmax (in vivo; male, iv, 2 mg/kg) was 47.6 ng/mL. It also gave an MRT last (in vivo; male, iv, 2 mg/kg) of 1.51 h, a Tmax (in vivo; male, iv, 2 mg/kg) of 0.25 h and a Vd (in vivo; male, iv, 2 mg/kg) of 46.3 L/kg. It also gave a clearance (in vivo; male, iv, 2 mg/kg) of 0.48 mL/min/kg, a half-life (in vivo; male, iv, 2 mg/kg) of 1.26 h and an AUC(0-inf) (in vivo; male, po, 20 mg/kg) of 54.8 ng·h/mL. The AUC(0-t) (in vivo; male, po, 20 mg/kg) was 54 ng·h/mL, the Cmax (in vivo; male, po, 20 mg/kg) was 49.8 ng/mL and the MRT last (in vivo; male, po, 20 mg/kg) was 1.73 h. For the same compound, the Tmax (in vivo; male, po, 20 mg/kg) was 0.5 h, the half-life (in vivo; male, po, 20 mg/kg) was 1.32 h and the AUC(0-inf) (in vivo; male, sc, 3 mg/kg) was 109 ng·h/mL. It also gave an AUC(0-t) (in vivo; male, sc, 3 mg/kg) of 108 ng·h/mL, a Cmax (in vivo; male, sc, 3 mg/kg) of 54.4 ng/mL and an MRT last (in vivo; male, sc, 3 mg/kg) of 1.45 h. For the same compound, the Tmax (in vivo; male, sc, 3 mg/kg) was 0.5 h, the half-life (in vivo; male, sc, 3 mg/kg) was 1.11 h and the “time after lobeline administration within which significant epimer concentrations were achieved in plasma” value (in vivo; rats, irrespective of dose or route) was 15 to 30 min. The “component content of solution” value ([3]; 37° C. uptake buffer with ATP-Mg2+ cofactor reduced from 2 mM to 0.4 mM, after 2 hours, with impurity) was 33%, the “final component concentration (as a function of the area under the curve)” value ([3]; VMAT2 uptake buffer (HEPES), 2 hour incubation at 37° C.) was 30% and the Epimer % ([3]; VMAT2 uptake buffer, 37° C., T0, sample age 0:01) was 1.76%.
